Laboratory results from the supplement of paper PMC10883282.

What was measured:
Assay in all cases: relative viability vs DMSO control (72 h) (fraction); higher = more viable cells
KHOS-240S = system: KHOS-240S
In short: (§1)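 After seeding at densities set for 80–90% confluence in 384-well plates, sarcoma cell lines waited 24 h before 2.5 µl of serially diluted compound was added. Source plates held 10 mM down to 0.0002 mM. Plates were incubated 72 h at 37 °C with 5% CO2, with 0.1% DMSO vehicle and a 5 µM positive control, and relative viability was taken from ATPLite as percent growth averaged over up to triplicate wells, with 1 set as full and 0 as none.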

RD-ES = system: RD-ES
In short: as §1

RD = system: RD
In short: as §1

SK-ES-1 = system: SK-ES-1
In short: as §1

SW982 = system: SW982
In short: as §1

O=C1CCc2c(Oc3ccc4c(c3)[C@@H]3[C@H](O4)[C@H]3c3nc4cc(C(F)(F)F)ccc4[nH]3)ccnc2N1 [Lifirafenib]
relative viability
Conditions	KHOS-240S	RD	RD-ES	SK-ES-1	SW982
0.00017 µM	1.068	1.08	0.9742	1.01	1.04
0.00051 µM	1.07	1.1	0.997	1.04	1.03
0.00152 µM	1.06	1.09	0.98	1.068	1.055
0.00457 µM	1.08	1.13	0.991	1.05	1.05
0.01372 µM	1.06	1.11	1	1.09	1.02
0.04115 µM	1.06	1.13	0.981	1.07	1.02
0.1235 µM	1.06	1.11	0.992	1.06	1.05
0.3704 µM	1.03	1.039	1.04	1.08	1.03
1.111 µM	0.967	0.947	1.02	1.04	0.897
3.333 µM	0.792	0.787	0.954	0.867	0.757
10 µM	0.547	0.5251	0.822	0.572	0.556

Cc1[nH]c(/C=C2\C(=O)Nc3ccccc32)c(C)c1CCC(=O)O [Orantinib]
relative viability
Conditions	KHOS-240S	RD	RD-ES	SK-ES-1	SW982
0.00017 µM	1.04	1.05	1.02	1.05	1.06
0.00051 µM	1.07	1.08	0.9951	1.06	1.11
0.00152 µM	1.087	1.1	1.01	1.06	1.1
0.00457 µM	1.06	1.12	1.03	1.04	1.1
0.01372 µM	1.05	1.11	1.03	1.04	1.09
0.04115 µM	1.065	1.09	1.02	1.06	1.1
0.1235 µM	1.08	1.12	1.01	1.02	1.08
0.3704 µM	1.09	1.11	1	1.06	1.044
1.111 µM	1.03	1.11	0.977	0.999	1.01
3.333 µM	1.06	1.07	0.983	0.982	0.935
10 µM	0.963	1.06	0.932	0.998	0.931

Cc1c2oc3c(C)ccc(C(=O)N[C@@H]4C(=O)N[C@H](C(C)C)C(=O)N5CCC[C@H]5C(=O)N(C)CC(=O)N(C)[C@@H](C(C)C)C(=O)O[C@@H]4C)c3nc-2c(C(=O)N[C@@H]2C(=O)N[C@H](C(C)C)C(=O)N3CCC[C@H]3C(=O)N(C)CC(=O)N(C)[C@@H](C(C)C)C(=O)O[C@@H]2C)c(N)c1=O [Dactinomycin]
relative viability
Conditions	KHOS-240S	RD	RD-ES	SK-ES-1	SW982
0.00017 µM	1.04	1.09	1	1.03	1.06
0.00051 µM	1.06	1.12	0.973	0.976	1.02
0.00152 µM	0.864	1.071	0.943	0.694	0.858
0.00457 µM	0.73	0.811	0.88	0.423	0.563
0.01372 µM	0.499	0.64	0.621	0.251	0.382
0.04115 µM	0.202	0.21	0.0824	0.00443	0.234
0.1235 µM	0.0803	0.0929	0.00823	-0.00147	0.15
0.3704 µM	0.0989	0.108	-0.00353	-0.0034	0.167
1.111 µM	0.0816	0.0875	-0.00503	-0.0043	0.147
3.333 µM	0.0805	0.0715	-0.00297	-0.00447	0.142
10 µM	0.0884	0.0653	0.00427	0.0007	0.147
